Assay results reported in article PMC4584933, “Establishing the pig as a large animal model for vaccine development against human cancer” (Frontiers in Genetics, 2015).

Experiments:
SLA-2*05:02 = experiment: Peptide-MHC class I complex stability, scintillation proximity assay (SPA); parameters: species or system pig; settings: biotinylated recombinant SLA heavy chain, 125I-β2m, excess unlabeled β2m, read every 40 min, number only if t1/2 ≥ 0.5 h, '-' = not stably binding
Method: (§1) The stability of the selected 198 peptides in complex with relevant SLA class I molecules and β2m was determined using a scintillation proximity assay (SPA), as previously described (Harndahl et al., [2011]). Briefly, biotinylated recombinant MHC class I heavy chains were attached to a streptavidin-coated scintillation microplate together with iodinated (^125I) β2m and candidate peptide resulting in a scintillation signal, which was consecutively measured every 40 min by a scintillation plate counter. The duration of this signal is directly correlated to the stability of the peptide-MHC class I-β2m complex under dissociating conditions and in the presence of excess unlabeled β2m (Harndahl et al., [2011]). Peptides with a half-life ≥ 0.5 h were selected as stable binders.

SLA-3*04:01 = experiment: as above; parameters: species or system pig; settings: biotinylated recombinant SLA heavy chain, 125I-β2m, excess unlabeled β2m, read every 40 min, number only if t1/2 ≥ 0.5 h, '-' = not stably binding
Method: as §1

SLA-2*04:01 = experiment: as above; parameters: species or system pig; settings: biotinylated recombinant SLA heavy chain, 125I-β2m, excess unlabeled β2m, read every 40 min, number only if t1/2 ≥ 0.5 h, '-' = not stably binding
Method: as §1

PBMCs = experiment: In vitro peptide stimulation of porcine PBMCs, IFN-γ release assay (ELISA); type: cell-based, pig; parameters: key to T cell response: “x” indicates that a response was found to this given peptide at least once; settings: PBMCs of immunized pigs, 2 × 10^5/well, 5 μg/ml peptide, 67.5–70.0 h, IFN-γ ELISA; response = 2-fold increase vs day -2 and at least 25 pg/ml IFN-γ, found at least once; SLA restriction not included

Sequence: EELPHPYDAWI [IDO14, porcine IDO-derived 9-11mer peptide]
- Binder (t1/2 ≥ 0.5 h): half-life of peptide-SLA-2*05:02 complex (SLA-2*05:02): - (t1/2 (hours) is listed for each of the stably binding peptides (t1/2 ≥ 0.5 h))

Sequence: RNYHLQIVTKY [IDO112, porcine IDO-derived 9-11mer peptide]
- Binder (t1/2 ≥ 0.5 h): half-life of peptide-SLA-3*04:01 complex (SLA-3*04:01): 30 min
- Binder (t1/2 ≥ 0.5 h): half-life of peptide-SLA-2*04:01 complex (SLA-2*04:01): 216 min

Sequence: ENIPEKWTP [RhoC17, porcine RhoC-derived 9-11mer peptide]
- Binder (t1/2 ≥ 0.5 h): half-life of peptide-SLA-2*05:02 complex (SLA-2*05:02): 66 min

Sequence: FLVSLLVEI [IDO25, porcine IDO-derived 9-11mer peptide]
- Binder (t1/2 ≥ 0.5 h): half-life of peptide-SLA-2*05:02 complex (SLA-2*05:02): - (t1/2 (hours) is listed for each of the stably binding peptides (t1/2 ≥ 0.5 h))

Sequence: MAAIRKKLVI [RhoC40, porcine RhoC-derived 9-11mer peptide]
- Binder (t1/2 ≥ 0.5 h): half-life of peptide-SLA-2*05:02 complex (SLA-2*05:02): 30 min

Sequence: RNYHLQIVTK [IDO111, porcine IDO-derived 9-11mer peptide]
- Binder (t1/2 ≥ 0.5 h): half-life of peptide-SLA-3*04:01 complex (SLA-3*04:01): - (t1/2 (hours) is listed for each of the stably binding peptides (t1/2 ≥ 0.5 h))
- Binder (t1/2 ≥ 0.5 h): half-life of peptide-SLA-2*04:01 complex (SLA-2*04:01): - (t1/2 (hours) is listed for each of the stably binding peptides (t1/2 ≥ 0.5 h))

Sequence: ENRGTGGTNVI [IDO19, porcine IDO-derived 9-11mer peptide]
- Binder (t1/2 ≥ 0.5 h): half-life of peptide-SLA-2*05:02 complex (SLA-2*05:02): - (t1/2 (hours) is listed for each of the stably binding peptides (t1/2 ≥ 0.5 h))

Sequence: KALEVFHQI [IDO45, porcine IDO-derived 9-11mer peptide]
- Binder (t1/2 ≥ 0.5 h): half-life of peptide-SLA-2*05:02 complex (SLA-2*05:02): - (t1/2 (hours) is listed for each of the stably binding peptides (t1/2 ≥ 0.5 h))

Sequence: VLSKGDALL [IDO127, porcine IDO-derived 9-11mer peptide]
- Binder (t1/2 ≥ 0.5 h): half-life of peptide-SLA-2*05:02 complex (SLA-2*05:02): - (t1/2 (hours) is listed for each of the stably binding peptides (t1/2 ≥ 0.5 h))

Sequence: RNFLHSLESGP [IDO107, porcine IDO-derived 9-11mer peptide]
- Binder (t1/2 ≥ 0.5 h): half-life of peptide-SLA-3*04:01 complex (SLA-3*04:01): 42 min
- T cell response (PBMCs): x

Sequence: MVSLRNYHLQI [IDO84, porcine IDO-derived 9-11mer peptide]
- Binder (t1/2 ≥ 0.5 h): half-life of peptide-SLA-2*05:02 complex (SLA-2*05:02): - (t1/2 (hours) is listed for each of the stably binding peptides (t1/2 ≥ 0.5 h))

Sequence: ELAKMKQEP [RhoC15, porcine RhoC-derived 9-11mer peptide]
- Binder (t1/2 ≥ 0.5 h): half-life of peptide-SLA-2*05:02 complex (SLA-2*05:02): - (t1/2 (hours) is listed for each of the stably binding peptides (t1/2 ≥ 0.5 h))

Sequence: KLSEKLGLPPI [IDO56, porcine IDO-derived 9-11mer peptide]
- Binder (t1/2 ≥ 0.5 h): half-life of peptide-SLA-2*05:02 complex (SLA-2*05:02): - (t1/2 (hours) is listed for each of the stably binding peptides (t1/2 ≥ 0.5 h))

Sequence: NKRRRGCPI [RhoC41, porcine RhoC-derived 9-11mer peptide]
- Binder (t1/2 ≥ 0.5 h): half-life of peptide-SLA-3*04:01 complex (SLA-3*04:01): - (t1/2 (hours) is listed for each of the stably binding peptides (t1/2 ≥ 0.5 h))

Sequence: KVIPTLFNAI [IDO61, porcine IDO-derived 9-11mer peptide]
- Binder (t1/2 ≥ 0.5 h): half-life of peptide-SLA-2*05:02 complex (SLA-2*05:02): - (t1/2 (hours) is listed for each of the stably binding peptides (t1/2 ≥ 0.5 h))

Sequence: KHFCPNVPIIL [RhoC30, porcine RhoC-derived 9-11mer peptide]
- Binder (t1/2 ≥ 0.5 h): half-life of peptide-SLA-3*04:01 complex (SLA-3*04:01): - (t1/2 (hours) is listed for each of the stably binding peptides (t1/2 ≥ 0.5 h))

Sequence: HKMQRLAHLVL [IDO37, porcine IDO-derived 9-11mer peptide]
- Binder (t1/2 ≥ 0.5 h): half-life of peptide-SLA-3*04:01 complex (SLA-3*04:01): - (t1/2 (hours) is listed for each of the stably binding peptides (t1/2 ≥ 0.5 h))

Sequence: VPTVFENYI [RhoC54, porcine RhoC-derived 9-11mer peptide]
- Binder (t1/2 ≥ 0.5 h): half-life of peptide-SLA-2*05:02 complex (SLA-2*05:02): 108 min

Sequence: KHFCPNVPII [RhoC29, porcine RhoC-derived 9-11mer peptide]
- Binder (t1/2 ≥ 0.5 h): half-life of peptide-SLA-3*04:01 complex (SLA-3*04:01): - (t1/2 (hours) is listed for each of the stably binding peptides (t1/2 ≥ 0.5 h))

Sequence: IAIAKNLPELI [IDO44, porcine IDO-derived 9-11mer peptide]
- Binder (t1/2 ≥ 0.5 h): half-life of peptide-SLA-2*05:02 complex (SLA-2*05:02): - (t1/2 (hours) is listed for each of the stably binding peptides (t1/2 ≥ 0.5 h))

Sequence: RNIAIPYCKLS [IDO109, porcine IDO-derived 9-11mer peptide]
- Binder (t1/2 ≥ 0.5 h): half-life of peptide-SLA-3*04:01 complex (SLA-3*04:01): - (t1/2 (hours) is listed for each of the stably binding peptides (t1/2 ≥ 0.5 h))

Sequence: KTVRGTTVRSL [IDO60, porcine IDO-derived 9-11mer peptide]
- Binder (t1/2 ≥ 0.5 h): half-life of peptide-SLA-3*04:01 complex (SLA-3*04:01): - (t1/2 (hours) is listed for each of the stably binding peptides (t1/2 ≥ 0.5 h))

Sequence: YDRLRPLSY [RhoC56, porcine RhoC-derived 9-11mer peptide]
- Binder (t1/2 ≥ 0.5 h): half-life of peptide-SLA-3*04:01 complex (SLA-3*04:01): - (t1/2 (hours) is listed for each of the stably binding peptides (t1/2 ≥ 0.5 h))
